Source: patent publication US6455550B1, “N-alkanoylphenylalanine derivatives” (Hoffmann-La Roche Inc., priority 1997, dated 2002)
Structures can show the parent of a compound that is named as a salt.

target: T1, VLA-4 (α4β1 integrin) binding to immobilized VCAM-1 (Homo sapiens, UniProt P05556+P13612); test: VLA-4/VCAM-1 Screening Assay (solid-phase, dual antibody ELISA); settings: not given
T1 construct: followed by 10 μl of Ramos cell-derived VLA-4; endogenous in cells; host or cells: Ramos cells (VLA-4 preparation derived from the cells)
T1 sequence (P13612 34-1032): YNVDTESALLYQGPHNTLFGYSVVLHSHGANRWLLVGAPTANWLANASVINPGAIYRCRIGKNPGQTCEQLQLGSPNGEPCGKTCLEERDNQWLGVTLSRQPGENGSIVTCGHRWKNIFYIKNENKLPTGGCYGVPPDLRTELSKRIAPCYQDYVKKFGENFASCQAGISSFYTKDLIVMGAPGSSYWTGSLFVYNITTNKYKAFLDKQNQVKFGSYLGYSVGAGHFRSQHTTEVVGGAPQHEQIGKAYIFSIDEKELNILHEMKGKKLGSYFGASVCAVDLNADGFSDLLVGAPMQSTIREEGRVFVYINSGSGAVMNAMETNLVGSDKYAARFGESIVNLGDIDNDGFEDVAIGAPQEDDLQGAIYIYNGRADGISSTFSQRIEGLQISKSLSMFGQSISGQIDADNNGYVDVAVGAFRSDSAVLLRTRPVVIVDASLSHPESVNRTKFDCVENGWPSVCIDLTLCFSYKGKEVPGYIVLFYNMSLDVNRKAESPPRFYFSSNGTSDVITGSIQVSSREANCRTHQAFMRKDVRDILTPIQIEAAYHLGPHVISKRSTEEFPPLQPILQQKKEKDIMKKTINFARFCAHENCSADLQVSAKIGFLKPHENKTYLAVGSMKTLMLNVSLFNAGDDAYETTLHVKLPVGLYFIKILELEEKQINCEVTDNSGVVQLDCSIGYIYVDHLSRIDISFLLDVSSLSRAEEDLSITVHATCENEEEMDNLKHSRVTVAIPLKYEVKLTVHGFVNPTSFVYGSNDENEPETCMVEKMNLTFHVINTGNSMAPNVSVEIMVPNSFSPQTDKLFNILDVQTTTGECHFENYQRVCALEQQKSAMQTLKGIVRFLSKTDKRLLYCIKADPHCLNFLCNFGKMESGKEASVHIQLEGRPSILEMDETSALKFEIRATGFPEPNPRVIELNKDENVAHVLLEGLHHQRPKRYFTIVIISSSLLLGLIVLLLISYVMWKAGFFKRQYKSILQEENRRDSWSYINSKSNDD
T1 sequence (P05556 21-798): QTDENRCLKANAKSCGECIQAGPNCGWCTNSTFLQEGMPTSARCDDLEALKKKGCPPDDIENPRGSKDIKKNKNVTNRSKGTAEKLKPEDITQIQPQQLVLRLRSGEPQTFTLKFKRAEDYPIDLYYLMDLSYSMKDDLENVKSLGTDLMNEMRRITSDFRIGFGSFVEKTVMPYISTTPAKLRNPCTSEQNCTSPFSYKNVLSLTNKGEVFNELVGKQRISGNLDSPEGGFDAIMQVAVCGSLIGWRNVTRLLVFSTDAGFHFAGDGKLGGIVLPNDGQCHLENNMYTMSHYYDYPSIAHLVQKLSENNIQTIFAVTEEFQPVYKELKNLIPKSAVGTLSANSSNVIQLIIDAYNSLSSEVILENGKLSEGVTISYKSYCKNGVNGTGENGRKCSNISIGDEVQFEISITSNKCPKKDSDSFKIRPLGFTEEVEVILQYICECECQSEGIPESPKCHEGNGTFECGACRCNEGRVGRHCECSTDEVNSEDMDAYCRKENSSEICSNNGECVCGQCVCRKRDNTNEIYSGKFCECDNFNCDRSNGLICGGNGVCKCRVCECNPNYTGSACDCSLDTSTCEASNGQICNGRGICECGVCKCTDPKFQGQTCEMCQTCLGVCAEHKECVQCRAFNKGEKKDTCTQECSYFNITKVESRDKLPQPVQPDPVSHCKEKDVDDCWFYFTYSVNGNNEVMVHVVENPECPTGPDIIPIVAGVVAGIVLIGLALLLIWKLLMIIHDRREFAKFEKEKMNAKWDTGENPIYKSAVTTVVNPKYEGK
Protocol: VLA-4 antagonist activity, defined as ability to compete for binding to immobilized VCAM-1 was quantitated using a solid-phase, dual antibody ELISA. VLA-4 (α4β1 integrin) bound to VCAM-1 was detected by a complex of anti-integrin β1 antibody: HRP-conjugated anti-mouse IgG: chromogenic substrate (K-Blue). Initially, this entailed coating 96 well plates (Nunc Maxisorp) with recombinant human VCAM-1 (0.4 μg in 100 μl PBS), sealing each plate and then allowing the plates to stand at 4° C for Å18 hr. […] On the day of assay, all plates were washed twice with VCAM Assay Buffer (200 μl/well of 50 mM Tris-HCl, 100 mM NaCl, 1 mM MnCl2, 0.05% Tween 20; pH 7.4). Test compounds were dissolved in 100% DMSO and then diluted 1:20 in VCAM Assay Buffer supplemented with 1 mg/mL BSA (i.e., final DMSO=5%). […] 100 μl per well of each dilution was added to the VCAM-coated plates, followed by 10 μl of Ramos cell-derived VLA-4. These plates were sequentially mixed on a platform shaker for 1 min, incubated for 2 hr at 37° C. and then washed four times with 200 μl/well VCAM Assay Buffer. 100 μl of mouse anti-human integrin β1 antibody was added to each well (0.6 μg/mL in VCAM Assay Buffer+1 mg/mL BSA) and allowed to incubate for 1 hr at 37° C. At the conclusion of this incubation period, all plates were washed four times with VCAM Assay Buffer (200 μl/well). A corresponding second antibody, HRP-conjugated goat anti-mouse IgG (100 μl per well @1:800 dilution in VCAM Assay Buffer+1 mg/mL BSA), was then added to each well, followed by a 1 hr incubation at room temperature and concluded by three washes (200 μl/well) with VCAM Assay Buffer. Color development was initiated by addition of 100 μl K-Blue per well (15 min incubation, room temp) and terminated by addition of 100 μl Red Stop Buffer per well. […] Results were calculated as % inhibition of total binding (i.e., VLA-4+VCAM-1 in the absence of test compound).

Structure (SMILES) | inhibition at 0.01 µM | inhibition at 0.1 µM
CC(C)C(C(=O)N[C@@H](Cc1ccc(NC(=O)c2ccnc3ccccc23)cc1)C(=O)O)c1ccccc1 (stereo partly drawn) [Example 76] | 73% | 93%
O=C(Nc1ccc(C[C@H](NC(=O)C23CC4CC(CC(C4)C2)C3)C(=O)O)cc1)c1ccnc2ccccc12 [Example 65] | 72% | 92%
O=C(Nc1ccc(C[C@H](NC(=O)C2(c3ccccc3)CCCCC2)C(=O)O)cc1)c1ccnc2ccccc12 [Example 77] | 67% | 93%
CCC(C(=O)N[C@@H](Cc1ccc(NC(=O)c2ccnc3ccccc23)cc1)C(=O)O)c1ccccc1 (stereo partly drawn) [Example 69] | 49% | 87%
CC1CCC(C)(C(=O)N[C@@H](Cc2ccc(NC(=O)c3ccnc4ccccc34)cc2)C(=O)O)C1(C)C (stereo partly drawn) [Example 71] | 51% | 86%
COc1ccc(C2(C(=O)N[C@@H](Cc3ccc(NC(=O)c4ccnc5ccccc45)cc3)C(=O)O)CCCCC2)cc1 [Example 79] | 77% | 95%

same assay, conditions: IC50 nM, Ramos cell-derived VLA-4, recombinant human VCAM-1 coated plates, 2 hr at 37° C.

Structure (SMILES) | IC50
COc1cccc(CC2(C(=O)N[C@@H](Cc3ccc(NC(=O)c4c(Cl)cccc4Cl)cc3)C(=O)O)CCCC2)c1 [Example 52] | 1.1 nM

same assay, conditions: Ramos cell-derived VLA-4, recombinant human VCAM-1 coated plates, 2 hr at 37° C.; read-out: IC50

Structure (SMILES) | IC50
O=C(Nc1ccc(C[C@H](NC(=O)C2(Cc3ccccc3)CCCC2)C(=O)O)cc1)c1c(Cl)cccc1Cl [Example 37, 4-[[(2,6-Dichlorophenyl)carbonyl]amino]-N-[[1-(phenylmethyl)cyclopentyl]carbonyl]-L-phenylalanine] | 5 nM
CCCCC(C)(CC)C(=O)N[C@@H](Cc1ccc(NC(=O)c2c(Cl)cccc2Cl)cc1)C(=O)O (stereo partly drawn) [Example 88] | 3.9 nM
O=C(Nc1ccc(CC(NC(=O)C23CC4CC(CC(C4)C2)C3)C(=O)O)cc1)c1ccc(F)cc1C(F)(F)F (stereo not drawn) [Example 84] | 4.4 nM
N#CC1(c2ccccc2)CCN(C(=O)Nc2ccc(C[C@H](NC(=O)C34CC5CC(CC(C5)C3)C4)C(=O)O)cc2)CC1 [Example 118] | 0.35 nM
CCCCC(C)(CC)C(=O)N[C@@H](Cc1ccc(NC(=O)c2ccc(F)cc2C(F)(F)F)cc1)C(=O)O (stereo partly drawn) [Example 89] | 81 nM
O=C(CC1CCCC1)NCCC1(C(=O)N[C@@H](Cc2ccc(NC(=O)c3c(Cl)cccc3Cl)cc2)C(=O)O)CCCC1 [Example 164] | 6.2 nM
CCCCC(C)(CC)C(=O)N[C@@H](Cc1ccc(NC(=O)[C@H](Cc2ccc(O)cc2)NC(C)=O)cc1)C(=O)O (stereo partly drawn) [Example 91] | 40 nM
CC(C)C(C(=O)N[C@@H](Cc1ccc(NC(=O)c2ccnc3ccccc23)cc1)C(=O)O)c1ccccc1 (stereo partly drawn) [Example 76] | 4.6 nM
N#CC1(C(=O)N[C@@H](Cc2ccc(NC(=O)CCN3CCCCC3)cc2)C(=O)O)CCCC1 [Example 92] | 3 nM
COc1ccc(CC2(C(=O)N[C@@H](Cc3ccc(N4C(=O)c5ccncc5C4=O)cc3)C(=O)O)CCCC2)cc1 [Example 109, 4-(2,3-Dihydro-1,3-dioxo-1H-pyrrolo[3,4-c]pyridin-2-yl)-N-[[1-[(4-methoxyphenyl)methyl]cyclopentyl]carbonyl]-L-phenylalanine] | 62 nM
CC(=O)N[C@@H](Cc1ccc(O)cc1)C(=O)Nc1ccc(C[C@H](NC(=O)C23CC4CC(CC(C4)C2)C3)C(=O)O)cc1 [Example 86] | 6.8 nM
CC(=O)N[C@@H](Cc1ccc(O)cc1)C(=O)Nc1ccc(C[C@H](NC(=O)C2(C)CC2(Cl)Cl)C(=O)O)cc1 (stereo partly drawn) [Example 101] | 18.3 nM
COc1ccc(C2(C(=O)NC(Cc3ccc(NC(=O)c4c(Cl)cccc4Cl)cc3)C(=O)O)CCCCC2)cc1 (stereo not drawn) [Example 103] | 0.7 nM
O=C(Nc1ccc(C[C@H](NC(=O)C23CC4CC(CC(C4)C2)C3)C(=O)O)cc1)c1ccnc2ccccc12 [Example 65] | 2.4 nM
COc1ccc(C2(C(=O)N[C@@H](Cc3ccc(N4C(=O)CSC4c4ccc(O)cc4)cc3)C(=O)O)CCCCC2)cc1 (stereo partly drawn) [Example 141, 4-[2-(4-Hydroxyphenyl)-4-oxo-3-thiazolidinyl]-N-[[1-(4-methoxyphenyl)cyclohexyl]carbonyl]-L-phenylalanine] | 3.9 nM
Cc1cc(C)c(S(=O)(=O)Nc2ccc(C[C@H](NC(=O)C34CC5CC(CC(C5)C3)C4)C(=O)O)cc2)c(C)c1 [Example 115, N-[(1-Adamantyl)carbonyl]-4-[[(2,4,6-trimethylphenyl)sulfonyl]amino]-L-phenylalanine] | 22.7 nM
CCOC(=O)c1ccccc1NC(=O)Nc1ccc(C[C@H](NC(=O)C2(C)CC2(Cl)Cl)C(=O)O)cc1 (stereo partly drawn) [Example 121] | 66 nM
CCCCC(C)(CC)C(=O)NC(Cc1ccc(NC(=O)CCN2CCCCC2)cc1)C(=O)O (stereo not drawn) [Example 87] | 1.5 nM
Cn1nc(C(C)(C)C)cc1C(=O)NCCC1(C(=O)N[C@@H](Cc2ccc(NC(=O)c3c(Cl)cccc3Cl)cc2)C(=O)O)CCCC1 [Example 167] | 9.2 nM
O=C(Nc1ccc(C[C@H](NC(=O)C2(c3ccccc3)CCCCC2)C(=O)O)cc1)c1ccnc2ccccc12 [Example 77] | 5.6 nM
COc1ccc(C2(C(=O)N[C@@H](Cc3ccc(NS(=O)(=O)c4c(C)cc(C)cc4C)cc3)C(=O)O)CCCCC2)cc1 [Example 114, N-[[1-(4-Methoxyphenyl)cyclohexyl]carbonyl]-4-[[(2,4,6-trimethylphenyl)sulfonyl]amino]-L-phenylalanine] | 155 nM

Structure (SMILES) | IC50
COc1ccc(CC2(C(=O)N[C@@H](Cc3ccc(NC(=O)c4ccc(F)cc4C(F)(F)F)cc3)C(=O)O)CCCC2)cc1 [Example 96] | 17.4 nM
CC1(C(=O)N[C@@H](Cc2ccc(NC(=O)c3ccnc4ccccc34)cc2)C(=O)O)CC1(Cl)Cl (stereo partly drawn) [Example 64, N-[(2,2-Dichloro-1-methylcyclopropyl)carbonyl]-4-[(4-quinolinylcarbonyl)amino]-L-phenylalanine] | 3 nM
CCCCC(CC)C(=O)NCCC1(C(=O)N[C@@H](Cc2ccc(NC(=O)c3c(Cl)cccc3Cl)cc2)C(=O)O)CCCC1 (stereo partly drawn) [Example 161] | 9.4 nM
COCCC1(C(=O)NC(Cc2ccc(N3C(=O)C(CC(C)C)N(C(C)=O)C3c3ccc(OC)cc3)cc2)C(=O)O)CCCC1 (single isomer, unassigned) [Example 131] | 63 nM
CCC(C(=O)N[C@@H](Cc1ccc(NC(=O)c2ccnc3ccccc23)cc1)C(=O)O)c1ccccc1 (stereo partly drawn) [Example 69] | 5.8 nM
COCCC1(C(=O)NC(Cc2ccc(N3C(=O)C(CC(C)C)N(C(C)=O)C3c3ccc(OC)cc3)cc2)C(=O)O)CCCC1 (single isomer, unassigned) [Example 136] | 0.73 nM
COc1ccc(CC2(C(=O)N[C@@H](Cc3ccc(NC(=O)c4ccnc5ccccc45)cc3)C(=O)O)CCCC2)cc1 [Example 40, N-[[1-[(4-Methoxyphenyl)methyl]cyclopentyl]carbonyl]-4-[(4-quinolinylcarbonyl)amino]-L-phenylalanine] | 2.1 nM
COc1ccc(CC2(C(=O)NC(Cc3ccc(NC(=O)c4c(Cl)cccc4Cl)cc3)C(=O)O)CCCC2)cc1OC (stereo not drawn) [Example 54] | 0.82 nM
COc1ccc(C2(C(=O)N[C@@H](Cc3ccc(N4C(=O)CSC4c4ccc5ccccc5c4)cc3)C(=O)O)CCCCC2)cc1 (stereo partly drawn) [Example 142, N-[[1-(4-methoxyphenyl)cyclohexyl]carbonyl]-4-[2-(2-naphthyl)-4-oxo-3-thiazolidinyl]-L-phenylalanine] | 1.7 nM
COc1ccc(C2(C(=O)N[C@@H](Cc3ccc(NC(=O)c4cc([N+](=O)[O-])ccc4C)cc3)C(=O)O)CCCCC2)cc1 [Example 105] | 0.83 nM
O=C(NCCC1(C(=O)N[C@@H](Cc2ccc(NC(=O)c3c(Cl)cccc3Cl)cc2)C(=O)O)CCCC1)c1ccc2c(c1)OCO2 [Example 165] | 11 nM
CC1CCC(C)(C(=O)N[C@@H](Cc2ccc(NC(=O)c3ccnc4ccccc34)cc2)C(=O)O)C1(C)C (stereo partly drawn) [Example 71] | 2.5 nM
COc1ccc(CC2(C(=O)N[C@@H](Cc3ccc(NC(=O)c4cc([N+](=O)[O-])ccc4C)cc3)C(=O)O)CCCC2)cc1 [Example 97] | 0.5 nM
COc1ccc(CC2(C(=O)N[C@@H](Cc3ccc(NC(=O)N4CCC(C#N)(c5ccccc5)CC4)cc3)C(=O)O)CCCC2)cc1 [Example 119] | 5 nM
COCCC1(C(=O)NC(Cc2ccc(N3C(=O)C(CC(C)C)N(C(C)=O)C3c3ccc(OC)cc3)cc2)C(=O)O)CCCC1 (single isomer, unassigned) [Example 130] | 6.6 nM
COc1ccc(C2(C(=O)N[C@@H](Cc3ccc(NC(=O)c4ccnc5ccccc45)cc3)C(=O)O)CCCCC2)cc1 [Example 79] | 1.2 nM
COCCC1(C(=O)NC(Cc2ccc(N3C(=O)C(CC(C)C)N(C(C)=O)C3c3ccc(Cl)cc3)cc2)C(=O)O)CCCC1 (single isomer, unassigned) [Example 139] | 38 nM
O=C(Nc1ccc(C[C@H](NC(=O)C2(c3ccccc3)CCCC2)C(=O)O)cc1)c1ccnc2ccccc12 [Example 27, N-[(1-Phenylcyclopentyl)carbonyl]-4-[(4-quinolinylcarbonyl)amino]-L-phenylalanine Sodium Salt] | 2.7 nM
COc1ccc(C2(C(=O)NC(Cc3ccc(NC(=O)CCN4CCCCC4)cc3)C(=O)O)CCCCC2)cc1 (stereo not drawn) [Example 102] | 0.95 nM
COc1ccc(CC2(C(=O)N[C@@H](Cc3ccc(NC(=O)[C@H](Cc4ccc(O)cc4)NC(C)=O)cc3)C(=O)O)CCCC2)cc1 [Example 98] | 11.7 nM
